Source: ChEMBL document CHEMBL6074705, “Novel Triazines as NLRP3 Inhibitors for Treating Multiple Diseases” (ACS Med Chem Lett, 2024)

Experiment: Inhibition of NLRP3 inflammasome activation in PMA-treated human THP-1 cells assessed as ASC-SPECK formation preincubated for 1 hr followed by gramicidin addition and measured after 3 hrs by immunofluorescence staining based assay
Type: cell-based

Compound	EC50 [nM]
Cc1nc(N2CC[C@]3(C)CCN(C)C[C@]23C)nnc1-c1ccc(OC(F)(F)F)cc1O	5
Cc1nc(N2CC[C@]3(C)CCN(C)C[C@]23C)nnc1-c1ccc(C(F)(F)F)cc1O	5
Cc1nc(N2CC[C@]3(C)CCN(C)C[C@]23C)nnc1-c1ccc(C2CC2)cc1O	7

More lines, in order of falling EC50, values ahead:

EC50 [nM]	Compound
5	CCN1CC[C@@]2(C)CCN(c3nnc(-c4ccc(C(F)(F)F)cc4O)c(C)n3)[C@@]2(C)C1
5	Cc1cc(O)c(-c2nnc(N3CC[C@]4(C)CCN(C)C[C@]34C)nc2C)c(F)c1
4	Cc1nc(N2CC[C@]3(C)CCN(C)C[C@]23C)nnc1-c1ccc(Cl)cc1O
